Patent US11046694B2, “Compounds and methods for treating bacterial infections” (Entasis Therapeutics, Inc., priority 2018, dated 2021)
In brackets after ≈: the same amount, converted by molar mass. Structures can show the parent of a compound that is named as a salt.

Columns and labels:
P. aeruginosa PBP2 = biological target: T1, P. aeruginosa PBP2 (Pseudomonas aeruginosa, UniProt Q9X6V3); assay type: biochemical; conditions: P. aeruginosa PBP2 300 nM, BOCILLIN FL 30 nM, pH 6.2
T1 sequence (Q9X6V3 1-646): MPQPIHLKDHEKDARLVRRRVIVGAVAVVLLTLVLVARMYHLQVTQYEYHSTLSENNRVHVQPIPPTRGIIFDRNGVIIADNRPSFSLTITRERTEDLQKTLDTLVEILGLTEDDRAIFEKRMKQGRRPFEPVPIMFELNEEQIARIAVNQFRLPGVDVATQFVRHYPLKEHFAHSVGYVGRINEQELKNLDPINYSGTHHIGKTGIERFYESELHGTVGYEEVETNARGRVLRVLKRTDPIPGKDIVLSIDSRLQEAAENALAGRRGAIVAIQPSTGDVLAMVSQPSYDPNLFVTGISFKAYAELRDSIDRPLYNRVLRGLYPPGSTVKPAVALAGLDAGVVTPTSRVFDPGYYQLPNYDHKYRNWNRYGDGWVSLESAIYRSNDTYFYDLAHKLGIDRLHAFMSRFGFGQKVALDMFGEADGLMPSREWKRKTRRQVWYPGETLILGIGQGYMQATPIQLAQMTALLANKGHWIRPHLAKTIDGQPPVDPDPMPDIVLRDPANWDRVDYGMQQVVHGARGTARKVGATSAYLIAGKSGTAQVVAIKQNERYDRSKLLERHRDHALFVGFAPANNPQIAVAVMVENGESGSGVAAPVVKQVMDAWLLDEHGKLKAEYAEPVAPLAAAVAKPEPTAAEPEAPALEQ

P. aeruginosa WT (PAO1) = assay: MIC, CLSI broth microdilution, P. aeruginosa; assay type: cell-based; conditions: Pseudomonas aeruginosa, PAO1; CLSI broth microdilution; read-out: P. aeruginosa WT (PAO1) MIC
P. aeruginosa PBP1a = P. aeruginosa PBP1a (Pseudomonas aeruginosa, UniProt Q07806); assay type: biochemical; conditions: P. aeruginosa PBP1a 60 nM, BOCILLIN FL 30 nM, pH 7.0
Chain of P. aeruginosa PBP1a (Q07806 whole entry): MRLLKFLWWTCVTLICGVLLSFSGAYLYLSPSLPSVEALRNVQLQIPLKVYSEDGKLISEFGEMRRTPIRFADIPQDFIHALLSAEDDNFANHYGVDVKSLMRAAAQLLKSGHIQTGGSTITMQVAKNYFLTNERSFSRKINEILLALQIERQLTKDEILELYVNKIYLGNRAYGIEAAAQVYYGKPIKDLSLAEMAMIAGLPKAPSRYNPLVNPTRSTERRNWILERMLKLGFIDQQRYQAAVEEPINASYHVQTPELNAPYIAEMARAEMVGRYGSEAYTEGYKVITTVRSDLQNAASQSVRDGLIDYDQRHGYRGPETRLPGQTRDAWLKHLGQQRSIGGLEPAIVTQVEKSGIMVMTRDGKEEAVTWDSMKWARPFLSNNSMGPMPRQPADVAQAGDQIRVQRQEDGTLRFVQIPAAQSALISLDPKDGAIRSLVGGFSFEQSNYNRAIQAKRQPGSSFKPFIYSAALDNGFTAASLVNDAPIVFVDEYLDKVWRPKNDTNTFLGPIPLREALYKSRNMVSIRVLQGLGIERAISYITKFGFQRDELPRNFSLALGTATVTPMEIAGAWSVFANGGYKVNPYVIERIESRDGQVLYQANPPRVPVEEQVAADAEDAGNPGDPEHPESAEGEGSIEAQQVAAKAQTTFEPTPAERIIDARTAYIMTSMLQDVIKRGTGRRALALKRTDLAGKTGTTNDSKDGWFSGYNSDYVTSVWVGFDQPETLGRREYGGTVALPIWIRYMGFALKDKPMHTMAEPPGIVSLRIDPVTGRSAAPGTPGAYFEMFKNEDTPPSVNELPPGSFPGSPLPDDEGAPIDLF

[1] = tested on: K. pneumoniae (ATCC700603); assay: MIC against K. pneumoniae; conditions: Klebsiella pneumoniae, ATCC700603, read-out: K. pneumoniae MIC (ATCC700603)
E. coli (ATCC25922) = assay: MIC against E. coli; conditions: Escherichia coli, ATCC25922, read-out: E. coli MIC (ATCC25922) (mg/L)
A. baumannii (ARC3495) = assay: MIC against A. baumannii; conditions: Acinetobacter baumannii, read-out: A. baumannii MIC (ARC3495) (mg/L)
P. aeruginosa PBP3 = P. aeruginosa PBP3 (Pseudomonas aeruginosa, UniProt G3XD46); assay type: biochemical; conditions: P. aeruginosa PBP3 60 nM, BOCILLIN FL 30 nM, pH 7.0
Chain of P. aeruginosa PBP3 (G3XD46 whole entry): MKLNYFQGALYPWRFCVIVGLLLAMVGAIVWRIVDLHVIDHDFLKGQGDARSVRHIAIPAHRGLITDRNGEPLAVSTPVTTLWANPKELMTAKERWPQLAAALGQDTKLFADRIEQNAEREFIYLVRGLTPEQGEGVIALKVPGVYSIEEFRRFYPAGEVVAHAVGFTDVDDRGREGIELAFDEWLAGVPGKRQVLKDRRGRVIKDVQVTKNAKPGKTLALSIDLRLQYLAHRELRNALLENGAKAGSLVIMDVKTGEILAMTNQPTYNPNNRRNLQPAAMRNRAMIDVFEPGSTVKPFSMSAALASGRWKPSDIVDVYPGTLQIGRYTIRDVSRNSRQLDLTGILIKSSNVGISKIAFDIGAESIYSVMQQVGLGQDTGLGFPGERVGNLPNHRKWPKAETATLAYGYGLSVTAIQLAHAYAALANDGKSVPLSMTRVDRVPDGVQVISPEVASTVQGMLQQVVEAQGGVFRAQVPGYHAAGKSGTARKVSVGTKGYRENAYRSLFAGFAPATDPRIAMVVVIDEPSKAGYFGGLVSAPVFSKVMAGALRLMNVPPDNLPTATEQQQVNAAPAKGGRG

SMILES | PBP2 acylation rate, k(on) (M^−1 · s^−1) (P. aeruginosa PBP2) | MIC (P. aeruginosa WT (PAO1)) [µg/mL] | PBP1a acylation rate, k(on) (M^−1 · s^−1) (P. aeruginosa PBP1a) | MIC [1] [µg/mL] | MIC (E. coli (ATCC25922)) [mg/L] | MIC (A. baumannii (ARC3495)) [mg/L] | PBP3 acylation rate, k(on) (M^−1 · s^−1) (P. aeruginosa PBP3)
CCN/C(=N\O)[C@@H]1c2c(cnn2C)[C@@H]2CN1C(=O)N2OS(=O)(=O)O (racemic) [Example 5] | * (* represents a k(on) < 100 M^−1 · s^−1) | > 16 | ** (** represents a k(on) of 100 to 10,000 M^−1 · s^−1) | > 16 | < 8 | > 16 | ** (** represents a k(on) of 100 to 10,000 M^−1 · s^−1)
CN/C(=N\OCCCCN)[C@@H]1c2c(cnn2C)[C@@H]2CN1C(=O)N2OS(=O)(=O)O (racemic) [Example 6] | * (* represents a k(on) < 100 M^−1 · s^−1) | 8 to 16 (≈ 19.2 to 38.3 µM) | * (* represents a k(on) < 100 M^−1 · s^−1) | > 16 | 8 to 16 (≈ 19.2 to 38.3 µM) | > 16 | ** (** represents a k(on) of 100 to 10,000 M^−1 · s^−1)
CN/C(=N\OCCN)[C@@H]1c2c(cnn2C)[C@@H]2CN1C(=O)N2OS(=O)(=O)O (racemic) [Example 7] | * (* represents a k(on) < 100 M^−1 · s^−1) | 8 to 16 (≈ 20.5 to 41.1 µM) | * (* represents a k(on) < 100 M^−1 · s^−1) | 8 to 16 (≈ 20.5 to 41.1 µM) | 8 to 16 (≈ 20.5 to 41.1 µM) | > 16 | ** (** represents a k(on) of 100 to 10,000 M^−1 · s^−1)
Cn1ncc2c1[C@@H](/C(=N/O)NCCCCN)N1C[C@@H]2N(OS(=O)(=O)O)C1=O (racemic) [Example 8] | * (* represents a k(on) < 100 M^−1 · s^−1) | > 16 | * (* represents a k(on) < 100 M^−1 · s^−1) | > 16 | < 8 | > 16 | * (* represents a k(on) < 100 M^−1 · s^−1)
CN(O)/C(=N\O)[C@@H]1c2c(cnn2C)[C@@H]2CN1C(=O)N2OS(=O)(=O)O (racemic) [Example 9] | * (* represents a k(on) < 100 M^−1 · s^−1) | < 8 | ** (** represents a k(on) of 100 to 10,000 M^−1 · s^−1) | 8 to 16 (≈ 22.1 to 44.2 µM) | < 8 | 8 to 16 (≈ 22.1 to 44.2 µM) | ** (** represents a k(on) of 100 to 10,000 M^−1 · s^−1)
Cn1ncc2c1[C@@H](/C(=N/O)NO)N1C[C@@H]2N(OS(=O)(=O)O)C1=O (racemic) [Example 10] | * (* represents a k(on) < 100 M^−1 · s^−1) | > 16 | * (* represents a k(on) < 100 M^−1 · s^−1) | 8 to 16 (≈ 23 to 45.9 µM) | 8 to 16 (≈ 23 to 45.9 µM) | > 16 | ** (** represents a k(on) of 100 to 10,000 M^−1 · s^−1)
CON/C(=N\O)[C@@H]1c2c(cnn2C)[C@@H]2CN1C(=O)N2OS(=O)(=O)O (racemic) [Example 11] | * (* represents a k(on) < 100 M^−1 · s^−1) | 8 to 16 (≈ 22.1 to 44.2 µM) | ** (** represents a k(on) of 100 to 10,000 M^−1 · s^−1) | < 8 | < 8 | 8 to 16 (≈ 22.1 to 44.2 µM) | *** (*** represents a k(on) > 10,000 M^−1 · s^−1)
Cn1ncc2c1[C@@H](/C(=N/O)NCc1ccc(N)cc1)N1C[C@@H]2N(OS(=O)(=O)O)C1=O (racemic) [Example 12] | * (* represents a k(on) < 100 M^−1 · s^−1) | > 16 | ** (** represents a k(on) of 100 to 10,000 M^−1 · s^−1) | > 16 | < 8 | > 16 | ** (** represents a k(on) of 100 to 10,000 M^−1 · s^−1)
Cn1ncc2c1[C@@H](/C(C#N)=N/O)N1C[C@@H]2N(OS(=O)(=O)O)C1=O (racemic) [Example 13] | * (* represents a k(on) < 100 M^−1 · s^−1) | > 16 | * (* represents a k(on) < 100 M^−1 · s^−1) | > 16 | < 8 | > 16 | ** (** represents a k(on) of 100 to 10,000 M^−1 · s^−1)
CN/C(=N\OCC(N)=O)[C@@H]1c2c(cnn2C)[C@@H]2CN1C(=O)N2OS(=O)(=O)O [Example 57, pyridium (4R,8S)-8-((Z)—N′-(2-amino-2-oxoethoxy)-N-methylcarbamimidoyl)-1-methyl-6-oxo-4,8-dihydro-1H-4,7-methanopyrazolo[3,4-e][1,3]diazepin-5(6H)-yl hydrogen sulfate] |  | < 8 | ** (** represents a k(on) of 100 to 10,000 M^−1 · s^−1) | 8 to 16 | 8 to 16 | 8 to 16 | *** (*** represents a k(on) > 10,000 M^−1 · s^−1)
CN/C(=N\OCC(=O)O)[C@@H]1c2c(cnn2C)[C@@H]2CN1C(=O)N2OS(=O)(=O)O [Example 62, 2-((((Z)-((4R,8S)-1-methyl-6-oxo-5-(sulfooxy)-4,5,6,8-tetrahydro-1H-4,7-methanopyrazolo[3,4-e][1,3]diazepin-8-yl)(methylamino)methylene)amino)oxy)acetic acid] |  | < 8 | ** (** represents a k(on) of 100 to 10,000 M^−1 · s^−1) | 8 to 16 (≈ 19.8 to 39.6 µM) | 8 to 16 (≈ 19.8 to 39.6 µM) | > 16 | *** (*** represents a k(on) > 10,000 M^−1 · s^−1)
CN/C(=N\OC(C)(C)C(=O)O)[C@@H]1c2c(cnn2C)[C@@H]2CN1C(=O)N2OS(=O)(=O)O [Example 63] |  | 8 to 16 (≈ 18.5 to 37 µM) | ** (** represents a k(on) of 100 to 10,000 M^−1 · s^−1) | > 16 | < 8 | > 16 | *** (*** represents a k(on) > 10,000 M^−1 · s^−1)
CN1C(=O)CON=C1[C@@H]1c2c(cnn2C)[C@@H]2CN1C(=O)N2OS(=O)(=O)O [Example 64, ((4R,8S)-1-methyl-8-(4-methyl-5-oxo-5,6-dihydro-4H-1,2,4-oxadiazin-3-yl)-6-oxo-4,8-dihydro-1H-4,7-methanopyrazolo[3,4-e][1,3]diazepin-5(6H)-yl) hydrogen sulfate] |  | > 16 | ** (** represents a k(on) of 100 to 10,000 M^−1 · s^−1) | > 16 | < 8 | > 16 | ** (** represents a k(on) of 100 to 10,000 M^−1 · s^−1)
CN1C(=O)C(C)(C)ON=C1[C@@H]1c2c(cnn2C)[C@@H]2CN1C(=O)N2OS(=O)(=O)O [Example 65] |  | > 16 | ** (** represents a k(on) of 100 to 10,000 M^−1 · s^−1) | > 16 | < 8 | > 16 | ** (** represents a k(on) of 100 to 10,000 M^−1 · s^−1)
CN/C(=N\OC(C)=O)[C@@H]1c2c(cnn2C)[C@@H]2CN1C(=O)N2OS(=O)(=O)O [Example 69, pyridium (4R,8S)-8-((Z)—N′-acetoxy-N-methylcarbamimidoyl)-1-methyl-6-oxo-4,8-dihydro-1H-4,7-methanopyrazolo[3,4-e][1,3]diazepin-5(6H)-hydrogen sulfate] |  | > 16 | ** (** represents a k(on) of 100 to 10,000 M^−1 · s^−1) | 8 to 16 | 8 to 16 | > 16 | *** (*** represents a k(on) > 10,000 M^−1 · s^−1)
CN/C(=N\OCC(=O)NOS(=O)(=O)O)[C@@H]1c2c(cnn2C)[C@@H]2CN1C(=O)N2OS(=O)(=O)O [Example 73, pyridium ((2-((((Z)-((4R,8S)-1-methyl-6-oxo-5-(sulfooxy)-4,5,6,8-tetrahydro-1H-4,7-methanopyrazolo[3,4-e][1,3]diazepin-8-yl)(methylamino)methylene)amino)oxy)acetamido)oxy)sulfonic acid] |  | 8 to 16 (≈ 16 to 32 µM) | ** (** represents a k(on) of 100 to 10,000 M^−1 · s^−1) | 8 to 16 (≈ 16 to 32 µM) | 8 to 16 (≈ 16 to 32 µM) | > 16 | *** (*** represents a k(on) > 10,000 M^−1 · s^−1)
